The experiment has as its system New Zealand White rabbits. The experiment is described as follows: Analysis for fatty streak in the main artery of cholesterol-fed rabbits (Oil Red O staining). As to conditions: 1 % cholesterol diet for 6 weeks plus 1 mg/kg Lovastatin or 0.05 % neohesperidin dihydrochalcone. The format is in vivo. Here is the method: 30 three-month-old New Zealand White rabbits(Yeonam Horticulture and Animal Husbandry College, Korea), each weighing about 2.5 to 2.6 kg, were raised under a condition of temperature 20±2°C, relative humidity 55±5 %, and photoperiod 12L/12D. The rabbits were divided into 3 groups and 3 groups of rabbits were fed with 3 different diets, i.e., RC4 diet(Oriental Yeast Co., Japan) containing 1 % cholesterol(Control group); 1 % cholesterol plus 1 mg/kg Lovastatin®(Merck, U.S.A.)(Lovastatin group); and 1 % cholesterol plus 0.05 % neohesperidin dihydrochalcone(Neohesperidin dihydrochalcone group), respectively. RC4 diet comprises 7.6 % moisture, 22.8 % crude protein, 2.8 % crude fat, 8.8 % crude ash, 14.4 % crude cellulose and 43.6 % soluble nitrogen-free substances. Neohesperidin dihydrochalcone was purchased from Sigma Chemical Co.(St. Louis, MO).
The rabbits were fed for 6 weeks while being allowed free access to the diets and water.
The chest of each of the rabbits sacrificed in Step 2 was incised. The downward portion of the main artery from the site 1 cm above the aortic valve was cut out in a length of about 5 cm and the fat surrounding the main artery was removed. The main artery was incised in the middle along the longitudinal axis and pinned to a dish. The moist artery was photographed and, then, the staining of fatty streaks was carried out in accordance with the method of Esper, E., et al. (J. Lab. Clin. Med., 121, 103-110(1993)) as follows.
A part of the incised main artery was washed three times with anhydrous propylene glycol for 2 min and stained for 30 min. with a saturated solution of Oil Red O(ORO, Sigma Co.) dissolved in propylene glycol. Thereafter, the artery was washed twice with 85 % propylene glycol for 3 min. to remove remaining staining solution and, then washed with physiological saline. The artery was photographed and the photograph was traced. The area of stained region (fatty streak region) was determined with an image analyzer(LEICA, Q-600, Germany) and its proportion(%) to the total arterial area was calculated.

Take `COc1ccc(CCC(=O)c2c(O)cc(O[C@@H]3O[C@H](CO)[C@@H](O)[C@H](O)[C@H]3O[C@@H]3O[C@@H](C)[C@H](O)[C@@H](O)[C@H]3O)cc2O)cc1O` [Neohesperidin dihydrochalcone]: where the note is “rabbit main artery”, the “A: Proportion(%) of fatty streak region to the total arterial area” value is reported as 12 (±7) %. The “layer of macrophage-lipid complex on the arterial endothelium (Figs. 1B, 1C)” value (rabbits) is “no or very thin layers of macrophage-lipid complex”.
